According to US6803366B2, “Agent for improving learning or memory” (Toray Industries, Inc., priority 1999, dated 2004):
“Also recorded” adds a separate entry of the source.

Experiments:
[1] = test system: patients suffering from dementia; conditions: cited from earlier work
[2] = test system: ICR male mice; assay: Test of learning of Step-Down type passive avoidance (MK-801-induced learning disability and memory disorder); assay type: in vivo; conditions: test 24 hours after training, FIG. 2
Procedure: In experiments, ICR male mice of 6 weeks old were used. The experiment apparatus comprised a plastic box sizing 25×25×30 cm (width×depth×height), a stainless steel grid for giving electrical shock, which was laid on the floor of the box, and a wooden platform sizing 4.5×4.5×3.0 cm (width×depth×height) placed on a corner on the floor grid.
Sixty minutes before the training trial, 100 or 300 μg/kg of Compound 1, or its solvent, saline, was subcutaneously administered. Thirty minutes later, 0.1 mg/kg of MK-801 which is a non-competitive antagonist of NMDA receptor, which is a compound that causes learning disability and/or memory disorder was intraperitoneally administered. Training trial was carried out by placing a mouse on the platform, and the time period until the mouse stepped down to the floor grid, that is, the Step-Down latency, was measured. Simultaneously with the attaching all of the feet of the mouse to the floor, an electrical shock of 0.6 mA was given for 2 seconds, thereby making the mouse to learn that an electrical shock would be given if the mouse would stepped down to the floor.
Test trials were carried out 24 hours after the training trials. Each mouse was again placed on the platform, and the Step-Down latency was measured for maximally 300 seconds.

[3] = test system: ICR male mice; assay: Evaluation of activity to improve learning and/or memory using Morris water maze; assay type: in vivo
Procedure: Evaluation of Activity to Improve Learning and/or Memory Using Morris Water Maze
In experiments, ICR male mice of 6 weeks old were used. Using Morris water maze as an experiment apparatus, ability of learning and memory of space was evaluated based on the latency until a mouse escapes to a platform arranged in a pool as an index. One trial was maximally 120 seconds, and 1 session was composed of three trials in which each mouse was made to swim in the pool from three different positions. Average time needed for the escape was calculated and evaluation was made based thereon. On the first day (the first session), no drug and nothing were administered. From the second session (Day 2), Compound 1, Compound 8 or a solvent was administered. Trial was repeated for 5 days (5 sessions).
The dose of Compound 1 was 10, 30 or 100 μg/kg, and the dose of Compound 8 was 100 μg/kg. Compound 1, Compound 8 or saline which was the solvent was subcutaneously administered 30 minutes before the first trial of each session. The data was subjected to analysis of variance and significance was evaluated according to Fisher's PLSD test. The cases where P<0.05 was evaluated as significant.

COc1cc2c(cc1OC)C(=O)C(CC1CCN(Cc3ccccc3)CC1)C2 (stereo not shown) [Aricept]
improvement in patients suffering from dementia ([1]; dementia in light to medium degree): improvement is observed in about half cases

CN1CC[C@@]2(c3cccc(O)c3)Cc3nc4ccccc4cc3C[C@H]2C1 [Compound 1, (4aR, 12aR)-2-methyl-4a-(3-hydroxyphenyl)-1,2,3,4,4a,5,12,12a-octahydro-quinoline[2,3-g]isoquinoline]
Step-Down latency in test trials: reversal of the shortening by MK-801 ([2]; Compound 1 100 or 300 μg/kg s.c. 60 min before training, MK-801 0.1 mg/kg i.p. 30 min later, vs MK-801 alone): significantly reduced; also recorded: recovered
time period (latency) required for escaping to the platform; ability of learning and memory of space ([3]; Compound 1 10, 30 or 100 μg/kg subcutaneously 30 minutes before first trial of each session, sessions 2-5, vs saline, FIG. 1): shortened dose-dependently from the second session; also recorded: ability of learning and memory of space was improved

CN1CC[C@@]2(c3cccc(O)c3)Cc3nc4c(Br)cc(Br)cc4cc3C[C@@H]2C1 [Compound 8, (+)-7,9-dibromo-4a-(3-hydroxyphenyl)-2-methyl-1,2,3,4,4a,5,12,12a-octahydro-quinoline[2,3 g]isoquinoline]
latency required for escaping to the platform; ability of learning and memory of space ([3]; Compound 8 100 μg/kg subcutaneously 30 minutes before first trial of each session, vs saline, FIG. 3): shortened

C[C@]12N[C@H](Cc3ccccc31)c1ccccc12 [MK-801]
Step-Down latency in test trials (passive avoidance reaction) ([2]; MK-801 alone 0.1 mg/kg i.p., vs control group (solvent alone)): significantly shorter than that of the control group; also recorded: significantly suppressed

Nc1c2c(nc3ccccc13)CCCC2 [tacrine]
side effects ([1]; clinical use): hepatic toxicity and choline-related side effects
improvement of intellectual function in cases in which the drug is administered ([1]; dementia patients): improvement of intellectual function to a certain degree is observed in about half of the cases
